What all share (format): functional
What all share (conditions): Homo sapiens, read-out: LC50 (the source's name)

The test system of one test is A498. The test can be described thus: In vitro cytotoxicity against […] cell line.
In a further test the test system is DU-145. The test can be described thus: In vitro cytotoxicity against prostate DU-145 cell line.
Another test relates to SNB-19. The test can be described thus: In vitro cytotoxicity against CNS SNB-19 cell line.
For the next test, the system named is SF-539. The test can be described thus: In vitro cytotoxicity against CNS SF-539 cell line.
Another test relates to M14. The test can be described thus: In vitro cytotoxicity against melanoma M14 cell line.
The test system of the next test is SR. The test can be described thus: In vitro cytotoxicity against leukemia SR cell line.
The test system of a further test is HCC 2998. The test can be described thus: In vitro cytotoxicity against colon […] cell line.
In the next test the test system is NCI-H226. The test can be described thus: In vitro cytotoxicity against non-small cell lung NCI-H226 cell line.

Each structure is given as a SMILES string. A value given as a limit tells only on which side of the number the result lay.

The values that follow come from ChEMBL document CHEMBL1147402, “Synthesis and antitumour activity of pyrene-linked pyrrolo [2,1-c]benzodiazepine hybrids” (Bioorg Med Chem Lett, 2004).

`COc1cc2c(cc1OCCCC(=O)Nc1cc3cccc4ccc5cccc1c5c43)N=C[C@@H]1CCCN1C2=O`: the CC50 was found to be 40 nM in the test on A498; 240 nM in the test with DU-145; 420 nM in the test on SNB-19; 180 nM in the test on SF-539; 50 nM in the test with M14; 50 nM in the test on SR. Moreover, the CC50 in the test on HCC 2998 was 10 nM; in the test with NCI-H226, below 10 nM.
